# Data: publication PMC10053230, “Constituents of the Stem Bark of Symphonia globulifera Linn. f. with Antileishmanial and Antibacterial Activities” (Molecules, 2023)
# Read-outs that look alike come from different tables or passages of the source.
# What was measured:
# [1] = test system: Raw 264.7 macrophage cells; experiment: Cytotoxicity, Alamar blue assay; format: cell-based; conditions: for Selectivity Index SI (=CC50/IC50): CC50 Raw 264.7 macrophages / IC50 L. donovani
# Description: (§1) (2010) with little modifications. […] Test plates were incubated for 28 h at 28 °C, followed by the addition of 1 mg/mL resazurin. […] The cytotoxicity profile of the crude extract and compounds was assessed using the Alamar blue assay (Mosman, 1983) against Raw 264.7 macrophage cells.
# [2] = test system: L. donovani NR-48822 promastigotes; experiment: In vitro antileishmanial assay, resazurin colorimetric method; format: cell-based, Leishmania donovani; conditions: 28 h at 28 °C, triplicate; for IC50: Leishmania donovani, read-out: Antileishmanial Activity IC50 ± SD
# Description: The antileishmanial activity on cultured L. donovani 1S (MHOM/SD/62/1S) promastigotes was evaluated using the resazurin colorimetric method as described by Siqueira-Neto et al. (2010) with little modifications. They were all assessed in triplicate at concentrations ranging from 100 to 0.16 µg/mL for the extract and 50–0.08 µg/mL for the compounds. Test plates were incubated for 28 h at 28 °C, followed by the addition of 1 mg/mL resazurin. The negative and positive controls were 0.1% DMSO and amphotericin B (10–0.016 µg/mL), respectively. The cytotoxicity profile of the crude extract and compounds was assessed using the Alamar blue assay (Mosman, 1983) against Raw 264.7 macrophage cells.
# [3] = Cytotoxicity, Alamar blue assay; format: cell-based; conditions: mouse; Raw 264.7 macrophage cells; read-out: Macrophages CC50 ± SD
# Description: as §1
# K. pneumoniae NR41388 = experiment: Antibacterial broth microdilution (MIC); format: cell-based, Klebsiella pneumoniae
# Description: (§2) The minimum inhibitory concentration (MIC) of the samples was evaluated following the broth microdilution method as described by Eloff, with light modifications. The extracts, compounds, and reference drug were dissolved in DMSO-MHB. […] Gentamicin was used as the positive control. Briefly, one hundred microliters of Mueller Hinton Broth was added to all wells of the 96-well plate, and 100 µL of the compounds/extracts was introduced into the wells in the first row (A) and mixed thoroughly. The sample mixture (100 µL) was removed from the well from row A to perform a twofold serial dilution down the rows (B–H). The last 100 µL was discarded. Then, 100 µL of the inoculum was introduced into the corresponding wells. The final volume in each well was 200 µL. Each extract concentration was assayed in triplicate and each test was performed twice. After an incubation period of 18 h at 37 °C, 20 µL of Alamar Blue was added to each well. The plates were then re-incubated for 30 min at 37 °C. A blue color in the well was scored as ‘‘no bacterial growth”, while a pink color was scored as a ‘‘growth occurrence”. MIC values were read at those concentrations where a pronounced change in color formation was noticed (from blue to pink).
# [4] = test system: Pseudomonas aeruginosa HM801; experiment: Antibacterial broth microdilution (MIC); format: cell-based
# Description: as §2
# [5] = test system: Klebsiella pneumoniae clinical isolate; experiment: Antibacterial broth microdilution (MIC); format: cell-based; conditions: read-out: Antibacterial Activity MIC, Kpc
# Description: as §2
# S. enterica NR13555 = experiment: Antibacterial broth microdilution (MIC); format: cell-based; conditions: Salmonella enterica, read-out: Antibacterial Activity MIC, Se
# Description: as §2
# S. aureus ATCC25923 = experiment: Antibacterial broth microdilution (MIC); format: cell-based; conditions: Staphylococcus aureus, read-out: Antibacterial Activity MIC, Sau
# Description: as §2
# [6] = test system: Staphylococcus aureus ATCC43300; experiment: Antibacterial broth microdilution (MIC); format: cell-based; conditions: read-out: Antibacterial Activity MIC, Sa
# Description: as §2
# Salmonella typhi CPC = experiment: Antibacterial broth microdilution (MIC); format: cell-based; conditions: Salmonella enterica, read-out: Antibacterial Activity MIC, St
# Description: as §2
# [7] = Pseudomonas aeruginosa HM801, read-out: Antibacterial Activity MIC, Pa
# [8] = Klebsiella pneumoniae clinical isolate
Molecule,IC50 [2],CC50 [3],Selectivity Index SI (=CC50/IC50) [1],MIC (S. enterica NR13555),MIC (S. aureus ATCC25923),MIC [6],MIC (Salmonella typhi CPC),further results
"1,5-dihydroxy-3-methoxyxanthone [Compound 10]",–,–,–,–,–,–,–,Macrophages CC50 ± SD ([1]; Raw 264.7 macrophage cells): >20 µg/mL; Antileishmanial Activity IC50 ± SD [2]: 47.04 ± 1.67 µg/mL
"C[C@@H]1[C@H](O)[C@@H](C)/C=C/C=C/C=C/C=C/C=C/C=C/C=C/[C@H](O[C@@H]2O[C@H](C)[C@@H](O)[C@H](N)[C@@H]2O)C[C@@H]2O[C@](O)(C[C@@H](O)C[C@@H](O)[C@H](O)CC[C@@H](O)C[C@@H](O)CC(=O)O[C@H]1C)C[C@H](O)[C@H]2C(=O)O [Amphotericin B, reference compound]",0.048 µg/mL,–,–,–,–,–,–,–
"C=C(C)CCC1CC2(CC=C(C)C)C(=O)C(=C(O)c3ccc(O)c(O)c3)C(=O)C(CC=C(C)C)(C2=O)C1(C)CCC=C(C)C (stereo not shown) [Compound 1, guttiferone U]",12.9 ± 1.11 µg/mL,28.1 ± 5.72 µg/mL,2.17,62.5 µg/mL,3.9 µg/mL,125 µg/mL,3.9 µg/mL,"Antibacterial Activity MIC, Kp (K. pneumoniae NR41388): 62.5 µg/mL; MIC [4, 7]: 3.9 µg/mL; MIC [5, 8]: 3.9 µg/mL"
"CC(C)=CCCC(C)=CCCC(C)=CCCC1(C)CCC2=C(O1)C(C)(O)C(O)C2=O (stereo not shown) [Compound 4, 12-farnesyl-6,7-dihydroxy-7-methyl-3,4,6,7-tetrahydrocyclopenta[b]pyran-5(2H)-one]",14 ± 1.14 µg/mL,> 20 µg/mL,–,125 µg/mL,62.5 µg/mL,500 µg/mL,31.2 µg/mL,"Antibacterial Activity MIC, Kp (K. pneumoniae NR41388): 62.5 µg/mL; MIC ([4]; Pseudomonas aeruginosa, HM801, read-out: Antibacterial Activity MIC, Pa): 31.2 µg/mL; MIC ([5]; Klebsiella pneumoniae): 31.2 µg/mL"
"COc1cc2c(=O)c3c(O)c4c(c(CC=C(C)C)c3oc2c(O)c1OC)OC(C)(C)C=C4 [Compound 6, gaboxanthone]",16 ± 1.2 µg/mL,> 20 µg/mL,>1.25,–,–,–,–,–
"COc1cc2c(=O)c3c(O)c4c(c(CC=C(C)C)c3oc2c(O)c1O)OC(C)(C)C=C4 [Compound 7, xanthone V2]",12.9 ± 1.11 µg/mL,> 20 µg/mL,>1.54,–,–,–,–,–
"CC1(C)C=Cc2c(cc3oc4c(O)c5c(cc4c(=O)c3c2O)C=CC(C)(C)O5)O1 [Compound 8, pyranojacareubin]",12.9 ± 1.11 µg/mL,> 20 µg/mL,>1.54,–,–,–,–,–
"CNC(C)C1CCC(N)C(OC2C(N)CC(N)C(OC3OCC(C)(O)C(NC)C3O)C2O)O1 (stereo not shown) [Gentamycin, reference compound]",–,–,–,0.07 µg/mL,0.03 µg/mL,0.07 µg/mL,0.048 µg/mL,"MIC [4, 7]: 0.048 µg/mL; MIC [5, 8]: 0.048 µg/mL"
